Measurements: patent US7612064B2, “Sulfopyrroles” (Takeda Pharmaceutical Company Limited, priority 2003, dated 2009)

Legend:
HeLa = experiment: MTS proliferation assay; type: cell-based, human; settings: 72 h
Method in brief: (§1)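 Compounds at final 10/3/1/0.3 μM (added in complete medium, ≤5% DMSO); 72 h, culture conditions; + MTS, 3 h; A492.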

Jurkat = experiment: MTS proliferation assay; type: cell-based, human; settings: 72 h
Method in brief: as §1

Jily = experiment: MTS proliferation assay; type: cell-based; settings: 72 h
Method in brief: as §1

MRC5 = experiment: MTS proliferation assay; type: cell-based; settings: MRC5, 72 h
Method in brief: as §1

[1] = Hoechst 33342 nuclear staining; type: cell-based; settings: for Hoechst 33342 nuclear staining score, H460: H460 cells; for Hoechst 33342 nuclear staining score, HeLa: HeLa cells; for Hoechst 33342 nuclear staining score, Jily: Jily cells; for Hoechst 33342 nuclear staining score, Jurkat: Jurkat cells; for Hoechst 33342 nuclear staining score, MRC5: MRC5 cells; for Hoechst 33342 nuclear staining score, PBLs: key: 0: no activity; 1: weak activity comprising less than 50% of the cells; 2: strong activity comprising more than 50% of the cells;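 for all read-outs here: apoptotic nuclei scored 0 none 1 weak under 50% of cells 2 strong over 50% of cells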
Method in brief: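 Cells were plated in 96 well tissue culture plates in 80 μl complete medium, with 3-5*10^3 cells per well for adherent lines and 8-10*10^3 for suspension lines. Adherent cells spread for 24 h before treatment, while suspension cells were treated right after seeding. Compounds were added in 20 μl complete medium containing max 5% DMSO.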

Compound	IC50 (Jily) [nM]	Hoechst 33342 nuclear staining score, H460 ([1]; conc 0.1)	Hoechst 33342 nuclear staining score, H460 ([1]; conc 0.3)	Hoechst 33342 nuclear staining score, H460 ([1]; conc 1)	Hoechst 33342 nuclear staining score, H460 ([1]; conc 3)	Hoechst 33342 nuclear staining score, HeLa ([1]; conc 0.1)	Hoechst 33342 nuclear staining score, HeLa ([1]; conc 0.3)	Hoechst 33342 nuclear staining score, HeLa ([1]; conc 1)	Hoechst 33342 nuclear staining score, HeLa ([1]; conc 3)	Hoechst 33342 nuclear staining score, Jily ([1]; conc 0.1)	Hoechst 33342 nuclear staining score, Jily ([1]; conc 0.3)	Hoechst 33342 nuclear staining score, Jily ([1]; conc 1)	Hoechst 33342 nuclear staining score, Jily ([1]; conc 3)	Hoechst 33342 nuclear staining score, Jurkat ([1]; conc 0.1)	Hoechst 33342 nuclear staining score, Jurkat ([1]; conc 0.3)	Hoechst 33342 nuclear staining score, Jurkat ([1]; conc 1)	Hoechst 33342 nuclear staining score, Jurkat ([1]; conc 3)	Hoechst 33342 nuclear staining score, MRC5 ([1]; conc 0.1)	Hoechst 33342 nuclear staining score, MRC5 ([1]; conc 0.3)	Hoechst 33342 nuclear staining score, MRC5 ([1]; conc 1)	other results
COc1cc(-c2cc(-c3cccnc3)cn2S(=O)(=O)c2ccc(C(C)(C)C)cc2)cc(OC)c1OC [Example 83]	> 1000	0	0	0	0	0	0	0	0	0	0	0	0	0	0	0	0	0	0	0	IC50 (HeLa): > 1000 nM; IC50 (Jurkat): > 1000 nM; IC50 (MRC5): > 1000 nM; Hoechst 33342 nuclear staining score, MRC5 ([1]; conc 3): 0; Hoechst 33342 nuclear staining score, PBLs ([1]; conc 0.1): 0; Hoechst 33342 nuclear staining score, PBLs ([1]; conc 0.3): 0; Hoechst 33342 nuclear staining score, PBLs ([1]; conc 1): 0; Hoechst 33342 nuclear staining score, PBLs ([1]; conc 3): 0
COc1ccc(S(=O)(=O)n2cc(-c3cccnc3)cc2-c2cc(OC)c(OC)c(OC)c2)cc1 [Example 76, 1-p-Methoxyphenylsulfonyl-4-(3-pyridyl)-2-(3,4,5-trimethoxyphenyl)-pyrrole]	< 200	2 (strong activity comprising more than 50% of the cells)	2 (strong activity comprising more than 50% of the cells)	2 (strong activity comprising more than 50% of the cells)	2 (strong activity comprising more than 50% of the cells)	1 (weak activity comprising less than 50% of the cells)	2 (strong activity comprising more than 50% of the cells)	2 (strong activity comprising more than 50% of the cells)	2 (strong activity comprising more than 50% of the cells)	2 (strong activity comprising more than 50% of the cells)	2 (strong activity comprising more than 50% of the cells)	2 (strong activity comprising more than 50% of the cells)	2 (strong activity comprising more than 50% of the cells)	2 (strong activity comprising more than 50% of the cells)	2 (strong activity comprising more than 50% of the cells)	2 (strong activity comprising more than 50% of the cells)	2 (strong activity comprising more than 50% of the cells)	1 (weak activity comprising less than 50% of the cells)	1 (weak activity comprising less than 50% of the cells)	1 (weak activity comprising less than 50% of the cells)	IC50 (HeLa; Homo sapiens): < 200 nM; IC50 (Jurkat; Homo sapiens): < 200 nM; IC50 (MRC5; Homo sapiens): < 200 nM; Hoechst 33342 nuclear staining score, MRC5 ([1]; conc 3): 1 (weak activity comprising less than 50% of the cells); Hoechst 33342 nuclear staining score, PBLs ([1]; conc 0.1): 0; Hoechst 33342 nuclear staining score, PBLs ([1]; conc 0.3): 0; Hoechst 33342 nuclear staining score, PBLs ([1]; conc 1): 0; Hoechst 33342 nuclear staining score, PBLs ([1]; conc 3): 0
COc1cc(-c2cc(-c3cncc(CNC(C)=O)c3)cn2S(=O)(=O)c2ccc(C)cc2)cc(OC)c1OC [Example 60]	< 1000	0	0	2 (strong activity comprising more than 50% of the cells)	2 (strong activity comprising more than 50% of the cells)	0	0	1 (weak activity comprising less than 50% of the cells)	2 (strong activity comprising more than 50% of the cells)	0	0	2 (strong activity comprising more than 50% of the cells)	2 (strong activity comprising more than 50% of the cells)	0	2 (strong activity comprising more than 50% of the cells)	2 (strong activity comprising more than 50% of the cells)	2 (strong activity comprising more than 50% of the cells)	0	0	0	IC50 (HeLa): < 1000 nM; IC50 (Jurkat): < 1000 nM; IC50 (MRC5): < 1000 nM; Hoechst 33342 nuclear staining score, MRC5 ([1]; conc 3): 2 (strong activity comprising more than 50% of the cells); Hoechst 33342 nuclear staining score, PBLs ([1]; conc 0.1): 0; Hoechst 33342 nuclear staining score, PBLs ([1]; conc 0.3): 0; Hoechst 33342 nuclear staining score, PBLs ([1]; conc 1): 0; Hoechst 33342 nuclear staining score, PBLs ([1]; conc 3): 0
COc1cc(-c2cc(-c3cccnc3)cn2S(=O)(=O)/C=C/c2ccccc2)cc(OC)c1OC [Example 89]	> 1000	0	0	0	0	0	0	0	0	0	0	0	1 (weak activity comprising less than 50% of the cells)	0	0	0	1 (weak activity comprising less than 50% of the cells)	0	0	0	IC50 (HeLa): > 1000 nM; IC50 (Jurkat): > 1000 nM; IC50 (MRC5): > 1000 nM; Hoechst 33342 nuclear staining score, MRC5 ([1]; conc 3): 0; Hoechst 33342 nuclear staining score, PBLs ([1]; conc 0.1): 0; Hoechst 33342 nuclear staining score, PBLs ([1]; conc 0.3): 0; Hoechst 33342 nuclear staining score, PBLs ([1]; conc 1): 0; Hoechst 33342 nuclear staining score, PBLs ([1]; conc 3): 0
COc1cc(-c2cc(CNc3ccc(-c4nnn[nH]4)cc3)cn2S(=O)(=O)c2ccc(C)cc2)cc(OC)c1OC [Example 73]	> 1000	0	0	0	2 (strong activity comprising more than 50% of the cells)	0	0	0	0	0	0	0	1 (weak activity comprising less than 50% of the cells)	0	0	0	2 (strong activity comprising more than 50% of the cells)	0	0	0	IC50 (HeLa): > 1000 nM; IC50 (Jurkat): > 1000 nM; IC50 (MRC5): > 1000 nM; Hoechst 33342 nuclear staining score, MRC5 ([1]; conc 3): 0; Hoechst 33342 nuclear staining score, PBLs ([1]; conc 0.1): 0; Hoechst 33342 nuclear staining score, PBLs ([1]; conc 0.3): 0; Hoechst 33342 nuclear staining score, PBLs ([1]; conc 1): 0; Hoechst 33342 nuclear staining score, PBLs ([1]; conc 3): 0
